System: Oligodendrocytes
Experiment: In vitro white matter injury assay: SIN-1 toxicity in oligodendrocytes
Type: cell-based
Conditions: PQQ 100 μM; SIN-1 0.25-2 mM, 2 hr; examined at 24 hr
Method: Oligodendrocytes were exposed to various concentrations of SIN-1 (0, 0.25, 0.5, 1 and 2 mM) in EBSS for 2 hr with or without PQQ (100 μM), then washed with HBSS containing 0.1% BSA for 2 times. Oligodendrocytes were then returned to the culture medium. The neurotoxicity was examined at 24 hr.
To illustrate the neuroprotective benefits of the invention, PQQ was used to show oligodendrocytes protection from cell toxicity in an in vitro white matter injury assay. Oligodendrocytes were exposed to various concentrations of SIN-1 (0, 0.25, 0.5, 1 and 2 mM) in EBSS for 2 hr with or without PQQ (100 μM), then washed with HBSS containing 0.1% BSA for 2 times. Oligodendrocytes were then returned to the culture medium. The neurotoxicity was examined at 24 hr.

O=C(O)c1cc(C(=O)O)c2c(n1)C(=O)C(=O)c1cc(C(=O)O)[nH]c1-2 [PQQ, Pyrroloquinoline quinone]
Effect on oligodendrocyte death induced by SIN-1: completely blocked

Reference: patent US20030229114A1, “Pyrroloquinoline quinone drugs as a neuroprotectant and methods of use thereof” (priority 2002, published 2003)
